Values of other authors in patent US5321127A, “Antiplatelet and antithrombotic activity of platelet glycoprotein Ib receptor fragments” (priority 1991, dated 1994).

Test system: vWF binding to platelets
Conditions: literature

Q: With “synthetic peptide spanning amino acid residues aspartate235 to lysine262: GpIbα synthetic peptide reported by Katagiri et al. (DVKAMTSNVASVQCDNSDKFPVYKYPGK; UniProt P07359 251-278, looked up, fragment)” as the substance, how does the “Inhibition of ristocetin-dependent binding of vWF to platelets” value read?
A: Its value is “inhibited”.
